Test results published in patent US12459922B2 (Gilead Sciences, Inc., priority 2022, dated 2025).

These molecules were tested on endogenous cellular STAT1 (phosphorylated at Tyr701) in NCI-H1373 cells (assay: Phospho-STAT1 (Tyr701) LANCE Ultra TR-FRET Detection Assay). Details: Homo sapiens, 48 hours, phospho-STAT1 (Tyr701) induction, read-out: NH1373 pSTAT1 EC50.
Type: cell-based

Structure (SMILES)	EC50
O=c1[nH]ncc(N2CCCN2CCCn2ccc3cc(-c4ncc(C(F)(F)F)cn4)c(F)cc3c2=O)c1C(F)(F)F [Example 154, 7-fluoro-2-[3-[2-[6-oxo-5-(trifluoromethyl)-1H-pyridazin-4-yl]pyrazolidin-1-yl]propyl]-6-[5-(trifluoromethyl)pyrimidin-2-yl]isoquinolin-1-one]	115 nM

Same assay, conditions: Homo sapiens, NCI-H1373, 48 h, phospho-STAT1 (Tyr701) induction, read-out: NH1373 pSTAT1 EC50

EC50	Structure (SMILES)
17.4 nM	CC[C@@H](CCCn1ccc2cc(-c3cnc(C(F)(F)F)c(N)n3)c(F)cc2c1=O)Nc1cn[nH]c(=O)c1C(F)(F)F [Example 339, (S)-6-(6-amino-5-(trifluoromethyl)pyrazin-2-yl)-7-fluoro-2-(4-((6-oxo-5-(trifluoromethyl)-1,6-dihydropyridazin-4-yl)amino)hexyl)isoquinolin-1(2H)-one]
1.63 nM	O=c1[nH]ncc(N[C@H](CCCn2ccc3cc(-c4ccc(C(F)F)cn4)c(F)cc3c2=O)COC(F)F)c1C(F)(F)F [Example 401, (R)-2-(5-(difluoromethoxy)-4-((6-oxo-5-(trifluoromethyl)-1,6-dihydropyridazin-4-yl)amino)pentyl)-6-(5-(difluoromethyl)pyridin-2-yl)-7-fluoroisoquinolin-1(2H)-one]
0.99 nM	Nc1nc(-c2cc3ccn(CCC[C@H](COC(F)F)Nc4cn[nH]c(=O)c4C(F)(F)F)c(=O)c3cc2F)ccc1Cl [Example 410, (R)-6-(6-amino-5-chloropyridin-2-yl)-2-(5-(difluoromethoxy)-4-((6-oxo-5-(trifluoromethyl)-1,6-dihydropyridazin-4-yl)amino)pentyl)-7-fluoroisoquinolin-1(2H)-one]
143 nM	C[C@@H](CCCn1ccc2cc(-c3nc(N)c4c(n3)COC4)c(F)cc2c1=O)Nc1cn[nH]c(=O)c1C(F)(F)F [Example 357, (S)-6-(4-amino-5,7-dihydrofuro[3,4-d]pyrimidin-2-yl)-7-fluoro-2-(4-((6-oxo-5-(trifluoromethyl)-1,6-dihydropyridazin-4-yl)amino)pentyl)isoquinolin-1(2H)-one]
16.6 nM	O=c1[nH]ncc(N[C@H](CCCn2cnc3cc(-c4cnc(OC(F)F)cn4)c(F)cc3c2=O)COC(F)F)c1C(F)(F)F [Example 373, (R)-3-(5-(difluoromethoxy)-4-((6-oxo-5-(trifluoromethyl)-1,6-dihydropyridazin-4-yl)amino)pentyl)-7-(5-(difluoromethoxy)pyrazin-2-yl)-6-fluoroquinazolin-4(3H)-one]
2.17 nM	O=c1[nH]ncc(N[C@H](CCCn2cnc3cc(-c4ncc(C(F)(F)F)cn4)c(F)cc3c2=O)COC(F)F)c1C(F)(F)F [Example 382, (R)-3-(5-(difluoromethoxy)-4-((6-oxo-5-(trifluoromethyl)-1,6-dihydropyridazin-4-yl)amino)pentyl)-6-fluoro-7-(5-(trifluoromethyl)pyrimidin-2-yl)quinazolin-4(3H)-one]
39.3 nM	COc1cnc(-c2cc3ccn(CCC[C@H](C)Nc4cn[nH]c(=O)c4C(F)(F)F)c(=O)c3cc2F)nc1NC1CC1 [Example 216, (S)-6-(4-(cyclopropylamino)-5-methoxypyrimidin-2-yl)-7-fluoro-2-(4-((6-oxo-5-(trifluoromethyl)-1,6-dihydropyridazin-4-yl)amino)pentyl)isoquinolin-1(2H)-one]
45.1 nM	C[C@@H](CCCn1cnc2cc(-c3cc4c(cn3)C(F)(F)CC4)c(F)cc2c1=O)Nc1cn[nH]c(=O)c1C(F)(F)F [Example 204]
2.98 nM	O=c1[nH]ncc(N[C@H](CCCn2ccc3cc(-c4ccc(C(F)(F)F)cn4)c(F)cc3c2=O)COC(F)F)c1C(F)(F)F [Example 399, (R)-2-(5-(difluoromethoxy)-4-((6-oxo-5-(trifluoromethyl)-1,6-dihydropyridazin-4-yl)amino)pentyl)-7-fluoro-6-(5-(trifluoromethyl)pyridin-2-yl)isoquinolin-1(2H)-one]
3.84 nM	O=c1[nH]ncc(N[C@H](CCCn2ccc3cc(-c4ncc(C(F)(F)F)cn4)c(F)c(F)c3c2=O)COC(F)F)c1C(F)(F)F [Example 375, (R)-2-(5-(difluoromethoxy)-4-((6-oxo-5-(trifluoromethyl)-1,6-dihydropyridazin-4-yl)amino)pentyl)-7,8-difluoro-6-(5-(trifluoromethyl)pyrimidin-2-yl)isoquinolin-1(2H)-one]
2.24 nM	CCOc1cnc(-c2cc3ccn(CCC[C@H](C)Nc4cn[nH]c(=O)c4C(F)(F)F)c(=O)c3cc2F)nc1N [Example 192, (S)-6-(4-amino-5-ethoxypyrimidin-2-yl)-7-fluoro-2-(4-((6-oxo-5-(trifluoromethyl)-1,6-dihydropyridazin-4-yl)amino)pentyl)isoquinolin-1(2H)-one]
195 nM	COc1cnc(-c2cc3ncn(CCC[C@H](C)Nc4cn[nH]c(=O)c4C(F)(F)F)c(=O)c3cc2F)nc1NC1CC1 [Example 220, (S)-7-(4-(cyclopropylamino)-5-methoxypyrimidin-2-yl)-6-fluoro-3-(4-((6-oxo-5-(trifluoromethyl)-1,6-dihydropyridazin-4-yl)amino)pentyl)quinazolin-4(3H)-one]

The remaining lines, values behind:

Structure (SMILES)	EC50
C[C@@H](CCCn1ccc2cc(-c3ncc(C(C)(C)O)cn3)c(F)cc2c1=O)Nc1cn[nH]c(=O)c1C(F)(F)F [Example 74, 7-fluoro-6-[5-(1-hydroxy-1-methyl-ethyl)pyrimidin-2-yl]-2-[(4S)-4-[[6-oxo-5-(trifluoromethyl)-1H-pyridazin-4-yl]amino]pentyl]isoquinolin-1-one]	65.3 nM
C[C@@H](CCCn1cnc2cc(-c3ncc4c(F)c[nH]c4n3)c(F)cc2c1=O)Nc1cn[nH]c(=O)c1C(F)(F)F [Example 64, 6-fluoro-7-(5-fluoro-7H-pyrrolo[2,3-d]pyrimidin-2-yl)-3-[(4S)-4-[[6-oxo-5-(trifluoromethyl)-1H-pyridazin-4-yl]amino]pentyl]quinazolin-4-one]	37.3 nM
C[C@@H](CCCn1ccc2cc(-c3ncc(N(C)C)cn3)c(F)cc2c1=O)Nc1cn[nH]c(=O)c1C(F)(F)F [Example 92, (S)-6-(5-(dimethylamino)pyrimidin-2-yl)-7-fluoro-2-(4-((6-oxo-5-(trifluoromethyl)-1,6-dihydropyridazin-4-yl)amino)pentyl)isoquinolin-1(2H)-one]	11.1 nM
CN(CCCn1ccc2cc(-c3ncc(C(F)(F)F)cn3)c(F)cc2c1=O)Nc1cn[nH]c(=O)c1C(F)(F)F [Example 172, 7-fluoro-2-(3-(1-methyl-2-(6-oxo-5-(trifluoromethyl)-1,6-dihydropyridazin-4-yl)hydrazineyl)propyl)-6-(5-(trifluoromethyl)pyrimidin-2-yl)isoquinolin-1(2H)-one]	1010 nM
C[C@@H](CCCn1cnc2cc(-c3ncc(C(F)(F)F)c(N4CC(O)C4)n3)c(F)cc2c1=O)Nc1cn[nH]c(=O)c1C(F)(F)F [Example 124, (S)-6-fluoro-7-(4-(3-hydroxyazetidin-1-yl)-5-(trifluoromethyl)pyrimidin-2-yl)-3-(4-((6-oxo-5-(trifluoromethyl)-1,6-dihydropyridazin-4-yl)amino)pentyl)quinazolin-4(3H)-one]	11.4 nM
C[C@@H](CCCn1cnc2cc(-c3ncc(C#N)c(N)n3)c(F)cc2c1=O)Nc1cn[nH]c(=O)c1C(F)(F)F [Example 125, (S)-4-amino-2-(6-fluoro-4-oxo-3-(4-((6-oxo-5-(trifluoromethyl)-1,6-dihydropyridazin-4-yl)amino)pentyl)-3,4-dihydroquinazolin-7-yl)pyrimidine-5-carbonitrile]	84.8 nM
C[C@@H](CCCn1cnc2cc(-c3ncc(F)c(N)n3)c(F)cc2c1=O)Nc1cn[nH]c(=O)c1C(F)(F)F [Example 67, 7-(4-amino-5-fluoro-pyrimidin-2-yl)-6-fluoro-3-[(4S)-4-[[6-oxo-5-(trifluoromethyl)-1H-pyridazin-4-yl]amino]pentyl]quinazolin-4-one]	218 nM
Nc1nc(-c2cc3ccn(CCC[C@@H]4CCCN4c4cn[nH]c(=O)c4C(F)(F)F)c(=O)c3cc2F)ncc1C(F)(F)F [Example 121, (S)-6-(4-amino-5-(trifluoromethyl)pyrimidin-2-yl)-7-fluoro-2-(3-(1-(6-oxo-5-(trifluoromethyl)-1,6-dihydropyridazin-4-yl)pyrrolidin-2-yl)propyl)isoquinolin-1(2H)-one]	5.16 nM
Cc1cnc(N)nc1-c1cc2ccn(CCC[C@H](C)Nc3cn[nH]c(=O)c3C(F)(F)F)c(=O)c2c(F)c1F [Example 80, (S)-6-(2-amino-5-methylpyrimidin-4-yl)-7,8-difluoro-2-(4-((6-oxo-5-(trifluoromethyl)-1,6-dihydropyridazin-4-yl)amino)pentyl)isoquinolin-1(2H)-one]	479 nM
C[C@@H](CCCn1cnc2cc(-c3ncc(OCCO)cn3)c(F)cc2c1=O)Nc1cn[nH]c(=O)c1C(F)(F)F [Example 127, (S)-6-fluoro-7-(5-(2-hydroxyethoxy)pyrimidin-2-yl)-3-(4-((6-oxo-5-(trifluoromethyl)-1,6-dihydropyridazin-4-yl)amino)pentyl)quinazolin-4(3H)-one]	474 nM
O=c1[nH]ncc(N[C@@H](CO)CCCn2ccc3cc(-c4ncc(C(F)F)cn4)c(F)cc3c2=O)c1C(F)(F)F [Example 165]	159 nM
O=c1[nH]ncc(N2CCC[C@H]2CCCn2ccc3cc(-c4ncc(C(F)(F)F)cn4)c(F)cc3c2=O)c1C(F)(F)F [Example 120, (S)-7-fluoro-2-(3-(1-(6-oxo-5-(trifluoromethyl)-1,6-dihydropyridazin-4-yl)pyrrolidin-2-yl)propyl)-6-(5-(trifluoromethyl)pyrimidin-2-yl)isoquinolin-1(2H)-one]	9.73 nM
CC(C)(CCCn1ccc2cc(-c3ncc(C(F)(F)F)c(N)n3)c(F)cc2c1=O)Nc1cn[nH]c(=O)c1C(F)(F)F [Example 137, 6-(4-amino-5-(trifluoromethyl)pyrimidin-2-yl)-7-fluoro-2-(4-methyl-4-((6-oxo-5-(trifluoromethyl)-1,6-dihydropyridazin-4-yl)amino)pentyl)isoquinolin-1(2H)-one]	50.6 nM
